Measured values reported in patent publication US20140336182A1, “Aurora Kinase Modulators and Method of Use” (Amgen Inc., priority 2013, published 2014).

test system: HeLa cells; assay: HeLa cell 24 hr ploidy assay (DNA content); assay type: cell-based; conditions: Homo sapiens, HeLa, 4N ploidy, average, read-out: 24h_4NPloidy EC50_IP (uM Avg)
Outline: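 DNA content measured by Hoechst 33342 nuclear staining (0.5 ug/ml, 45 min RT) and high-content imaging of fixed HeLa cells after 24 h compound exposure in 0.25% DMSO. Fractions of 4N and >4N cells fitted to dose curves giving EC50 IP, EC50 transit, Max and Min.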

Row | EC50 [µM] | Structure (SMILES)
1 | 0.019 | COc1cc2ncnc(Oc3ccc(Nc4nnc(-c5ccccc5)c5ccccc45)cc3)c2cc1OC [compound 98, N-(4-((6,7-bis(methyloxy)-4-quinazolinyl)oxy)phenyl)-4-phenyl-1-phthalazinamine]
2 | 0.036 | N#Cc1ccc2c(Oc3ccc(Nc4nnc(-c5ccccc5)c5ccccc45)cc3)ccnc2c1 [compound 105]
3 | 0.116 | Fc1cc(Nc2nnc(-c3ccccc3)c3ccccc23)ccc1Oc1ccnc2ccccc12 [compound 115]
4 | 0.025 | COc1cc2nccc(Nc3ccc(Nc4nnc(-c5ccccc5)c5ccccc45)cc3)c2cn1 [compound 124, N-(7-(methyloxy)-1,6-naphthyridin-4-yl)-N′-(4-phenyl-1-phthalazinyl)-1,4-benzenediamine]
5 | 0.487 | COc1cnc2c(Oc3ccc(Nc4nnc(-c5cc(F)ccc5OC)c5ccccc45)cc3)ccnc2c1 [compound 80]
6 | 0.099 | COc1cnc2c(Oc3ccc(Nc4nnc(-c5ccc6c(c5)CC(C)(C)O6)c5ccccc45)cc3)ccnc2c1 [compound 136]
7 | 0.297 | COc1cc2nccc(Oc3ccc(Nc4nnc(N5CCN(C)CC5)c5ccccc45)cc3)c2cn1 [compound 109]
8 | 0.053 | Cc1ccc(-c2nnc(Nc3ccc(Oc4ccnc5cc(C#N)ccc45)cc3)c3ccccc23)nc1 [compound 122]
9 | 0.013 | COc1cc2nccc(Oc3ccc(Nc4nnc(-c5ccccc5)c5ccccc45)cc3)c2cc1OC [compound 90]
10 | 0.155 | COc1cnc2c(Oc3ccc(Nc4ncc(-c5ccccc5)c5ccccc45)cc3)ccnc2c1 [compound 144]
11 | 0.054 | COc1cnc2c(Oc3ccc(Nc4nnc(N5CCN6CCCC6C5)c5ccccc45)cc3)ccnc2c1 (centres unmarked) [compound 92]
12 | 0.007 | COc1cnc2c(Oc3ccc(Nc4nnc(-c5ccc6sccc6c5)c5ccccc45)cc3)ccnc2c1 [compound 142]

same assay, conditions: Homo sapiens, HeLa, HeLa cells, 4N ploidy, average, read-out: 24h_4NPloidy EC50_IP (uM Avg)

Row | EC50 [µM] | Structure (SMILES)
13 | 0.008 | Cc1ccc(-c2nnc(Nc3ccc(Oc4ccnc5cccnc45)cc3)c3ccccc23)cc1N [compound 416]
14 | 0.147 | N#Cc1ccc2nccc(Oc3ccc(Nc4nnc(-c5ccccc5)c5ccccc45)cc3)c2c1 [compound 592]
15 | 0.029 | CCc1cc(-c2ccccc2)nnc1Nc1ccc(Sc2ccnc3cc(OC)cnc23)cc1 [compound 274, 4-ethyl-N-(4-(7-methoxy-1,5-naphthyridin-4-ylthio)phenyl)-6-phenylpyridazin-3-amine]
16 | 0.482 | COc1cnc2c(Oc3ccc(Nc4nnc(N5CCN(S(C)(=O)=O)CC5)c5ccccc45)cc3)ccnc2c1 [compound 607]
17 | 0.024 | c1ccc(-c2nnc(Nc3ccc(Sc4ccnc5ccncc45)cc3)c3ccccc23)cc1 [compound 425]
18 | 0.018 | COc1cnc2c(Sc3ccc(Nc4nnc(N5CCN6CCCC[C@H]6C5)c5ccccc45)cc3)ccnc2c1 [compound 585]
19 | 0.084 | CCc1cc(-c2ccc(C)cc2)nnc1Nc1ccc(Nc2ccnc3cc(C#N)ccc23)cc1 [compound 596]
20 | 0.006 | COc1cnc2c(Oc3ccc(Nc4nnc(-c5ccc(C)cc5)c5ccccc45)cc3F)ccnc2c1 [compound 187]
21 | 0.369 | N#Cc1ccc(-c2nnc(Nc3ccc(Oc4ccnc5cc(C#N)ccc45)cc3)c3ccccc23)cc1 [compound 217]
22 | 0.066 | COc1cnc2c(Sc3ccc(Nc4nnc(OC)c5ccccc45)cc3)ccnc2c1 [Example 402, 4-Methoxy-N-(4-(7-methoxy-1,5-naphthyridin-4-ylthio)phenyl)phthalazin-1-amine]
23 | 0.055 | Cc1csc(-c2nnc(Nc3ccc(Sc4ccnc5ccc(OC(F)(F)F)cc45)cc3)c3ccccc23)c1 [compound 572]
24 | 0.003 | COCCn1ccc2nccc(Sc3ccc(Nc4nnc(-c5ccc(Cl)cc5)c5ccccc45)cc3)c21 [compound 469]
25 | 0.022 | COc1cnc2c(Oc3ccc(Nc4nnc(-c5ccc(Cl)c(Cl)c5)c5ccccc45)cc3)ccnc2c1 [compound 201, 4-(3,4-dichlorophenyl)-N-(4-((7-(methyloxy)-1,5-naphthyridin-4-yl)oxy)phenyl)-1-phthalazinamine]
26 | 0.083 | CCc1cc(-c2ccc(C)cc2)nnc1Nc1ccc(Nc2ccnc3cc(OC)cnc23)cc1 [compound 595]
27 | 0.004 | COc1cnc2c(Oc3ccc(Nc4nnc(-c5cccc(N(C)C)c5)c5ccccc45)cc3)ccnc2c1 [compound 258]
28 | 0.033 | CCOc1nnc(Nc2ccc(Sc3ccnc4cc(OC)cnc34)cc2)c2ccccc12 [compound 512]
29 | 0.021 | COc1cnc2c(Sc3ccc(Nc4nnc(N5CCCC5)c5ccccc45)cc3)ccnc2c1 [compound 521]
30 | 0.104 | COc1cnc2c(Oc3ccc(Nc4nnc(-c5ccc(C#N)cc5)c5ccccc45)cc3)ccnc2c1 [compound 181]
31 | 0.109 | Cc1ccc(-c2nnc(Nc3ccc(Oc4ccnc5ccncc45)cc3)c3ccccc23)nc1 [compound 432]

Row | EC50 [µM] | Structure (SMILES)
32 | 0.055 | Fc1cc(F)c2c(Sc3ccc(Nc4nnc(-c5ccccc5)c5ccccc45)cc3)ccnc2c1 [compound 311]
33 | 0.001 | COc1ccc2nccc(Oc3ccc(Nc4nnc(-c5ccc(Cl)cc5)c5ccccc45)cc3)c2c1 [compound 239]
34 | 0.011 | COc1cnc2c(Oc3ccc(Nc4nnc(-c5ccc(Cl)c(C)c5)c5ccccc45)cc3)ccnc2c1 [compound 236]
35 | 0.501 | COc1cnc2c(Oc3ccc(Nc4nnc(-c5cn[nH]c5)c5ccccc45)cc3)ccnc2c1 [compound 212]
36 | 0.06 | FC(F)(F)Oc1ccc2nccc(Sc3ccc(Nc4nnc(-c5ccccc5)c5ccccc45)cc3)c2c1 [compound 571]
37 | < 0.0023 | COc1cnc2c(Sc3ccc(Nc4nnc(-c5ccc(C)c(O)c5)c5ccccc45)cc3)ccnc2c1 [compound 451]
38 | 0.073 | Cc1csc(-c2nnc(Nc3ccc(Oc4ccnc5ccsc45)cc3)c3ccccc23)c1 [compound 289]
39 | 0.007 | c1cnc2c(Sc3ccc(Nc4nnc(-c5ccc6c(c5)OCO6)c5ccccc45)cc3)ccnc2c1 [compound 443]
40 | 0.148 | N#Cc1cc2nccc(Sc3ccc(Nc4nnc(-c5ccccc5)c5ccccc45)cc3)c2s1 [compound 458]
41 | 0.021 | COc1ccc2c(Oc3ccc(Nc4nnc(-c5ccccc5)c5c4CCC5)cc3)ccnc2c1 [compound 368]
42 | 0.14 | COc1cnc2c(Oc3ccc(Nc4nnc(N5CC[C@@H]6CCCC[C@H]6C5)c5ccccc45)cc3)ccnc2c1 [compound 587]
43 | 0.045 | FC1(F)Oc2ccc(-c3nnc(Nc4ccc(Oc5ccnc6ccsc56)cc4)c4ccccc34)cc2O1 [compound 293]
44 | 0.757 | c1ccc(-c2nnc(Nc3ccc(Oc4ccnc5ccnn45)cc3)c3ccccc23)cc1 [compound 370]
45 | > 1.2 | COc1cnc2c(Oc3ccc(Nc4nnc(-c5ccc(C(N)=O)cc5)c5ccccc45)cc3)ccnc2c1 [compound 177]
46 | 0.1 | COc1cnc2c(Sc3ccc(Nc4nnc(C(C)C)c5ccccc45)cc3)ccnc2c1 [compound 558]
47 | 0.013 | COc1cnc2c(Sc3ccc(Nc4nnc(N5CCn6ccnc6C5)c5ccccc45)cc3)ccnc2c1 [compound 576]
48 | 0.062 | COCCNc1nnc(Nc2ccc(Sc3ccnc4cc(OC)cnc34)cc2)c2ccccc12 [compound 533]
49 | 0.001 | COc1cnc2c(Sc3ccc(Nc4nnc(-c5ccc(C)c(N)c5)c5ccccc45)cc3)ccnc2c1 [compound 477]
50 | 0.027 | Cc1ccc(-c2nnc(Nc3ccc(Oc4ccnc5ccsc45)cc3)c3ccccc23)cc1 [compound 252]
